We go through three compounds from ChEMBL document CHEMBL3868619, “Synthesis and biological assessment of novel N-(hydroxy/methoxy)alkyl β-enaminone curcuminoids” (Bioorg Med Chem Lett, 2016).

Data set [1] in a line: Solubility of the compound in ethanol. It is filed as physicochemical.
A short description of data set [2]: Cytotoxicity against human HT-29 cells assessed as decrease in cell viability after 48 hrs by MTT assay. It is filed as functional, cell-based. As to conditions: HT-29, 48 h. (Formazan colour is commonly taken as a measure of viable cells.)
Data set [3] has as its system EA.hy 926. The data set can be described thus: Induction of ROS generation in human EAhy926 cells at 1 uM using DCFH-DA by fluorescence assay relative to control. Format: functional.
Data set [4] relates to EA.hy 926. The experiment in a line: Induction of ROS generation in human EAhy926 cells at 10 uM using DCFH-DA by fluorescence assay relative to control. Format: functional.
Data set [5] is described as follows: Induction of ROS generation in CHOK1 cells at 1 uM using DCFH-DA by fluorescence assay relative to control. It is filed as cell-based, Cricetulus griseus. As to conditions: chinese hamster, cho-k1, 1 µM.
The test system of data set [6] is HepG2. The experiment in a line: Induction of ROS generation in human HepG2 cells at 1 uM using DCFH-DA by fluorescence assay relative to control. It is filed as functional.
Data set [7] is described as follows: Antioxidant activity assessed as DPPH radical scavenging activity after 30 mins by spectrophotometric analysis. Format: functional.
Data set [8] can be described thus: Solubility of the compound in dimethylformamide. Format: physicochemical.
Data set [9] can be described thus: Cytotoxicity against human HepG2 cells assessed as decrease in cell viability after 48 hrs by MTT assay. It is filed as functional, cell-based. As to conditions: HepG2, 48 h.
Data set [10] is described as follows: Cytotoxicity against human EAhy926 cells assessed as decrease in cell viability after 48 hrs by MTT assay. Format: toxicity, cell-based, EA.hy 926. The conditions noted are these: EA.hy926 cells.
Data set [11] in a line: Solubility of the compound in acetone. Format: physicochemical.
A short description of data set [12]: Cytotoxicity against CHOK1 cells assessed as decrease in cell viability after 48 hrs by MTT assay. As to conditions: Chinese hamster, CHO-K1 cells. Format: toxicity, cell-based, Cricetulus griseus.
The nature of data set [13]: Solubility of the compound in methanol. Format: physicochemical.
Data set [14] in a line: Cytotoxicity against human Caco2 cells assessed as decrease in cell viability after 48 hrs by MTT assay. Format: functional, cell-based. The conditions noted are these: Caco-2, 48 h.
Data set [15] can be described thus: Induction of ROS generation in CHOK1 cells at 10 uM using DCFH-DA by fluorescence assay relative to control. Format: cell-based, Cricetulus griseus. As to conditions: chinese hamster, cho-k1, 10 µM.
In data set [16] the test system is HT-29. The experiment in a line: Induction of ROS generation in human HT-29 cells at 1 uM using DCFH-DA by fluorescence assay relative to control. Format: functional.
The nature of data set [17]: Aqueous solubility of the compound in sodium phosphate buffer at pH 6.8 after 90 mins by shake flask method. Format: physicochemical.
Data set [18] deals with Caco-2. The experiment in a line: Induction of ROS generation in human Caco2 cells at 1 uM using DCFH-DA by fluorescence assay relative to control. Format: functional.
Data set [19] is described as follows: Cytotoxicity against human EAhy926 cells assessed as cell viability at 100 uM after 48 hrs by MTT assay relative to control. As to conditions: EA.hy926 cells, read-out: Activity. Format: toxicity, cell-based, EA.hy 926.
Data set [20] is described as follows: Solubility of the compound in 2-methyl-THF. It is filed as physicochemical.
Data set [21] relates to HepG2. The data set can be described thus: Induction of ROS generation in human HepG2 cells at 10 uM using DCFH-DA by fluorescence assay relative to control. It is filed as functional.
Data set [22] is described as follows: Chemical stability of the compound sodium phosphate buffer at pH 6.8 after 24 hrs by LC-MS analysis. It is filed as physicochemical. As to conditions: pH 6.8, 24 h.
The test system of data set [23] is HT-29. The experiment in a line: Induction of ROS generation in human HT-29 cells at 10 uM using DCFH-DA by fluorescence assay relative to control. Format: functional.
Data set [24] is described as follows: Solubility of the compound in dimethyl sulfoxide. It is filed as physicochemical.
The nature of data set [25]: Solubility of the compound in ethyl acetate. Format: physicochemical.
Data set [26] is described as follows: Aqueous solubility of the compound in sodium phosphate buffer at pH 6.8 after 24 hrs by shake flask method. Format: physicochemical.
For data set [27], the system named is Caco-2. The data set can be described thus: Induction of ROS generation in human Caco2 cells at 10 uM using DCFH-DA by fluorescence assay relative to control. Format: functional.
The subject of data set [28] is HepG2. The experiment in a line: Cytotoxicity against human HepG2 cells assessed as change in cell morphology after 48 hrs. It is filed as functional, cell-based.

pEC50, pIC50: −log10 of the molar value. Converted amounts (≈) assume the structure as drawn. The source made the active and inactive calls. The rule behind the calls is not given here.

Turning to `COCCNC(=C\C(=O)/C=C/c1ccc(O)c(OC)c1)/C=C/c1ccc(O)c(OC)c1`, the solubility entry is recorded as “Soluble” in [1]; “Soluble” in [8]; “Insoluble” in [11]; “Soluble” in [13]; “Insoluble” in data set [20]; “Soluble” in [24]. The solubility entry in [25] is reported as “Insoluble”. Also, the negative logarithm of the IC50 (pIC50) in [2], in data set [9] and in data set [14] was under 4.00 in each case. Further, the Activity in the data set with EA.hy 926 [3] came out at 126.2%; in the data set on EA.hy 926 [4] it was 121.3%; in data set [5], 94%; with HepG2 [6], 83.8%; in [15], 84.4%; with HT-29 [16] it was 86.5%. For the same compound, the Activity amounted to 105% with Caco-2 [18], 66.6% with HepG2 [21], 92.3% in the data set on HT-29 [23] and 75.6% with Caco-2 [27]. Moreover, the pEC50 (in general, −log10 of the EC50, conventionally taken in molar units) in [7] was 4.56. In addition, the results for the concentration for half-maximal inhibition (IC50) at 48 h in data set [10] and in data set [12] were at least 100 µM and 63 µM, respectively. Further, the thermodynamic solubility – broadly, the concentration in solution at equilibrium with solid – at 1.5 h in data set [17] was 16.7 µM (≈ 7.1 µg/mL). Moreover, in data set [19], the viability at 48 h, 100 µM was 50.9%. The Stability entry in data set [22] was “Stable”. For the same compound, the thermodynamic solubility at 24 h in [26] was 12.7 µM (≈ 5.4 µg/mL).

On to `COc1cccc2c1C(=O)c1c(O)c3c(c(O)c1C2=O)C[C@@](O)(C(=O)CO)C[C@@H]3O[C@H]1C[C@H](N)[C@H](O)[C@H](C)O1` [DOXORUBICIN], for which the negative-log IC50 (pIC50) (usually the negative decadic logarithm of the IC50, by convention in mol/L) in data set [2] is 5.13; in data set [9], under 4.12; in data set [14], 5.03. For the same compound, the concentration for half-maximal inhibition (IC50) at 48 h in data set [10] and in data set [12] was 4.2 µM each time. Further, the result in the data set on HepG2 [28] was Active.

Consider `COCCNC(=C\C(=O)/C=C/c1ccc(O)cc1)/C=C/c1ccc(O)cc1`, for which the solubility entry in data set [1] is “Soluble”; in [8] it was “Soluble”; in data set [11] it was “Insoluble”; in [13], “Soluble”; in [20] it was “Insoluble”; in [24] it was “Soluble”. Moreover, the solubility entry in [25] is recorded as “Insoluble”. Besides, the negative-log IC50 (pIC50) was 4.24 in data set [2], 4.20 in data set [9] and 4.55 in data set [14]. For the same compound, the Activity in the data set with EA.hy 926 [3] is on record as 130.3%; in the data set with EA.hy 926 [4] it was 134.2%; in data set [5], 82.5%; in the data set on HepG2 [6], 76.4%; in data set [15] it was 75.1%; in the data set on HT-29 [16], 97%. Also, the Activity in the data set with Caco-2 [18] was 94.9%; in the data set on HepG2 [21], 77.9%; with HT-29 [23] it was 96.8%; in the data set with Caco-2 [27], 89.7%. Besides, in [7], the negative-log EC50 (pEC50) was under 3.70. Moreover, the values for the concentration for half-maximal inhibition (IC50) at 48 h in [10] and in [12] were 45.1 µM and 34.9 µM, respectively. Also, the thermodynamic solubility at 1.5 h in data set [17] stood at 37.5 µM (≈ 13.7 µg/mL). Further, the Stability entry in data set [22] was “Stable”. The thermodynamic solubility at 24 h in data set [26] amounted to 46.1 µM (≈ 16.8 µg/mL).
